{
  "source": "ChEMBL document CHEMBL4304757",
  "about": "“Synthetic heterocyclic candidates as promising α-glucosidase inhibitors: An overview” (Eur J Med Chem, 2019)",
  "key": {"[1]": {"target": "T1, Alpha glucosidase (Homo sapiens, UniProt O43451+P10253+P14410+Q2M2H8)", "test": "Inhibition of alpha-glucosidase (unknown origin) using p-nitro phenyl glucopyranoside as substrate preincubated for 10 mins followed by substrate addition measured after 10 mins", "type": "protein assay"}, "[2]": {"target": "T2, Alpha amylase (Homo sapiens, UniProt P0DUB6)", "T2 sequence (P0DUB6 whole entry)": "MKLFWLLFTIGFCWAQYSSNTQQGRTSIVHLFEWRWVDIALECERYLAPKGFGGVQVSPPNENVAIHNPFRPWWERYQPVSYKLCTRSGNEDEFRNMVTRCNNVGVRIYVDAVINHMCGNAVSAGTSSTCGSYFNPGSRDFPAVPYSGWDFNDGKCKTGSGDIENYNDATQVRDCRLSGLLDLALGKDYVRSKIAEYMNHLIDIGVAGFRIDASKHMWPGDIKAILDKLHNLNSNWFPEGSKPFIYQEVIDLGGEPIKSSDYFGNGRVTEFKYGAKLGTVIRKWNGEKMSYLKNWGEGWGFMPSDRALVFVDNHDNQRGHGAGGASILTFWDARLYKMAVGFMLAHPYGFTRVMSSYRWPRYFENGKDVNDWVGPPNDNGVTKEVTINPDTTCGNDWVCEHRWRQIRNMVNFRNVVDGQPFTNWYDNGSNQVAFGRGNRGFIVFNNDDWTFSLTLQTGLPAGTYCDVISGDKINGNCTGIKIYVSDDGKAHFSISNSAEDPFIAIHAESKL", "test": "Inhibition of alpha-amylase (unknown origin) using p-nitro phenyl glucopyranoside as substrate preincubated for 10 mins followed by substrate addition measured after 10 mins"}, "[3]": {"target": "T1, Alpha glucosidase", "test": "Inhibition of alpha-glucosidase (unknown origin) using p-nitro phenyl glucopyranoside as substrate preincubated for 10 mins followed by substrate addition measured after 30 mins", "type": "protein assay"}, "[4]": {"target": "T1, Alpha glucosidase", "test": "Non-competitive inhibition of alpha-glucosidase (unknown origin) using p-nitro phenyl glucopyranoside as substrate preincubated for 10 mins followed by substrate addition measured after 30 mins", "type": "protein assay"}},
  "data": [
    {"smiles": "CCOC(=O)CN1C(=O)S/C(=C/c2ccc(-n3ccc4c(Br)ccnc43)cc2)C1=O", "values": [
      {"measurement": "IC50", "setting": "[1]", "value": 0.55, "unit": "µM"},
      {"measurement": "IC50", "setting": "[2]", "value": 0.85, "unit": "µM"}
    ]},
    {"smiles": "O=C(N/N=C/c1cc(Cl)cc(Cl)c1O)c1nc(-c2cc3ccccc3oc2=O)cs1", "values": [
      {"measurement": "IC50", "setting": "[3]", "value": 6.2, "unit": "µM"},
      {"measurement": "Ki", "setting": "[4]", "value": 6.8, "unit": "µM"}
    ]}
  ]
}
